From ChEMBL document CHEMBL1153997, “Discovery of oxazolo[4,5-b]pyridines and related heterocyclic analogs as novel SIRT1 activators” (Bioorg Med Chem Lett, 2009)

Tests used:
[1] = target: T1, NAD-dependent protein deacetylase sirtuin-1 (Homo sapiens) (UniProt Q96EB6); experiment: Activation of human SIRT1 expressed in Escherichia coli BL21 (DE3) assessed as concentration required to increase 50% enzyme activity by fluorescence polarization assay
T1 sequence (whole entry): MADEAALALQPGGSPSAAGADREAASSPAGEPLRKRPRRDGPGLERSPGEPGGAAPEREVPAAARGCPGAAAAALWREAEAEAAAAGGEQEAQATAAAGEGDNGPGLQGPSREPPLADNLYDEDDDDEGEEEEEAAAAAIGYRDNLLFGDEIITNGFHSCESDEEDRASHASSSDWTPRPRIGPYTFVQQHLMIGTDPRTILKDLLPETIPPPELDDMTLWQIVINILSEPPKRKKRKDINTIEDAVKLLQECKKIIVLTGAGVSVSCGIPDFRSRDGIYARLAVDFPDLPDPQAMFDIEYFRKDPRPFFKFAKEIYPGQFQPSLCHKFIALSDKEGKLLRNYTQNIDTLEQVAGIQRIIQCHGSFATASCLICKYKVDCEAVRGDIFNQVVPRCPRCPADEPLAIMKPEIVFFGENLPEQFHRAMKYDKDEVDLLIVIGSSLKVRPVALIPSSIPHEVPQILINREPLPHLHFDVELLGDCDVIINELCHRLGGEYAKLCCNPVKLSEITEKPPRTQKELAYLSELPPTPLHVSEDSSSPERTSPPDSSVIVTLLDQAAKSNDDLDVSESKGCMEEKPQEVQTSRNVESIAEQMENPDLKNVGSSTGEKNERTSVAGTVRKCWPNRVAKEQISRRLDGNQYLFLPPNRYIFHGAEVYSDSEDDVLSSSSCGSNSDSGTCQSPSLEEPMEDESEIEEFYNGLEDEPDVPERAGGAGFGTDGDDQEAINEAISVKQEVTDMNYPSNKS

[2] = target: T1, NAD-dependent protein deacetylase sirtuin-1 (Homo sapiens); experiment: Activation of human SIRT1 expressed in Escherichia coli BL21 (DE3) assessed as maximum activation of enzyme activity by fluorescence polarization assay

| EC1.5 [1] [µM] | max activation [2] [%] | Structure (SMILES) |
| --- | --- | --- |
| 0.5 | 270 | COc1ccc(C(=O)Nc2ccccc2-c2nc3ncccc3[nH]2)cc1OC |
| 0.5 | 232 | COc1ccc(C(=O)Nc2cccc(-c3nc4ncccc4[nH]3)c2)c(OC)c1 |
| 1.4 | 324 | COc1ccc(C(=O)Nc2cccc(-c3nc4ncccc4[nH]3)c2)cc1OC |
| 2.3 | 150 | COc1cc(C)ccc1C(=O)Nc1ccc(-c2nc3ncccc3[nH]2)cc1 |
| 1.6 | 180 | COc1ccc(C(=O)Nc2ccc(-c3nc4ncccc4[nH]3)cc2)cc1OC |
| 0.9 | 170 | COc1ccc(C(=O)Nc2ccccc2-c2nc3ncccc3o2)cc1OC |
| 6 | 240 | COc1ccc(C(=O)Nc2cccc(-c3nc4ncccc4o3)c2)cc1OC |
| > 100 | – | COc1ccc(C(=O)Nc2ccc(-c3nc4ncccc4o3)cc2)cc1OC |

Further lines, the molecule ahead of its results:

| Structure (SMILES) | EC1.5 [1] [µM] | max activation [2] [%] |
| --- | --- | --- |
| O=C(Nc1ccccc1-c1nc2ncccc2[nH]1)c1ccc(N2CCOCC2)cc1 | 0.9 | 273 |
| COc1cc(C)ccc1C(=O)Nc1ccccc1-c1nc2ncccc2[nH]1 | 4.1 | 250 |
| COc1ccc(C(=O)Nc2cc(CN(C)C)cc(-c3nc4ncccc4o3)c2)cc1OC | 1.1 | 200 |
| COc1ccc(C(=O)Nc2cc(C(=O)NCCN(C)C)cc(-c3nc4ncccc4o3)c2)cc1OC | 0.7 | 240 |
| O=C(Nc1ccccc1-c1nc2ccccc2[nH]1)c1cnc2ccccc2n1 | 0.3 | 253 |
| CN(C)c1ccc(C(=O)Nc2ccccc2-c2nc3ncccc3[nH]2)cc1 | 0.7 | 230 |
| O=C(Nc1ccc(CN2CCNCC2)cc1-c1nc2ccccc2[nH]1)c1cnc2ccccc2n1 | 0.4 | 820 |
| CN(C)c1cccc(C(=O)Nc2ccc(-c3nc4ncccc4o3)cc2)c1 | > 100 | – |
| CN(C)CCNC(=O)c1cc(NC(=O)c2cccc(N(C)C)c2)cc(-c2nc3ncccc3o2)c1 | 1.8 | 330 |
| COc1ccc(C(=O)Nc2ccccc2-c2nc3ccccc3[nH]2)cc1OC | 0.4 | 595 |
| CN(C)c1cccc(C(=O)Nc2cccc(-c3nc4ncccc4o3)c2)c1 | 25 | 207 |
| COc1cc(OC)cc(C(=O)Nc2ccccc2-c2nc3ccccc3[nH]2)c1 | 1.7 | 180 |
| COc1ccc(C(=O)Nc2ccccc2-c2nc3ccccc3[nH]2)cc1CN1CCOCC1 | 0.5 | 314 |
| COc1ccc(C(=O)Nc2cc(CN3CCNCC3)cc(-c3nc4ncccc4o3)c2)c(OC)c1 | 0.5 | 220 |
| COc1ccc(C(=O)Nc2cc(CN3CCNCC3)cc(-c3nc4ncccc4o3)c2)cc1OC | 1.1 | 240 |
| CN(C)c1cccc(C(=O)Nc2ccccc2-c2nc3ncccc3o2)c1 | 4.4 | 209 |
| Oc1ccc(/C=C/c2cc(O)cc(O)c2)cc1 | – | 200 |
